US9592309B2, “Positron emission tomography probe to monitor selected sugar metabolism in vivo” (The Regents of the University of California, priority 2012, dated 2017)

Experiments:
[1] = Positron emission tomography / computed tomography imaging of mice; type: in vivo; conditions: for tissues in which the probe selectively accumulates: mice, positron emission tomography
Method: Positron Emission Tomography, Computed Tomography Imaging. 6-12-week old C57BL/6J female mice and 12-week old female B6.V-Lep^ob/J (Ob/Ob) mice were purchased from the Jackson Laboratory. Animals were anesthetized with 2% isofluorane and injected intravenous in the tail vein with 75-150 μCi of [^18F]-FDA. One hour post-injection, the mice were imaged for 10 minutes on a Siemens Inveon PET scanner and 10 minutes on a MicroCAT II CT system. […] Journal of Digital Imaging 17 (3), 205 (2004)).

[2] = tested on: non-oxidative pentose phosphate pathway; experiment: Mass spectrometry analysis of 2-fluoro-2-deoxyarabinose metabolites in mouse organs (MRM LC-MS); type: in vivo; conditions: mice
Method: Mice (8-12 weeks old) were treated with 25 μL of 500 mM 2-fluoro-2-deoxyarabinose. 1 hour later, the mice were sacrificed and the metabolites from distinct organs were extracted with 3× with 80% MeOH. Extracted metabolites were dried and analyzed by multiple reaction monitoring liquid chromatography-mass spectrometry (MRM LC-MS).

[3] = target: T1, 5′ FLAG-tagged human ribokinase (Homo sapiens, UniProt Q9H477); experiment: Ribokinase assay (kinase reaction with isolated FLAG-tagged ribokinase); type: biochemical; conditions: 20 minutes at 37° C., 3 mM ATP
T1 construct: host or cells: 293T cells, transfected with pMSCV-IRES-YFP (pRBKS); captured with anti-FLAG M2 magnetic beads and eluted with FLAG peptide
T1 sequence (Q9H477 whole entry): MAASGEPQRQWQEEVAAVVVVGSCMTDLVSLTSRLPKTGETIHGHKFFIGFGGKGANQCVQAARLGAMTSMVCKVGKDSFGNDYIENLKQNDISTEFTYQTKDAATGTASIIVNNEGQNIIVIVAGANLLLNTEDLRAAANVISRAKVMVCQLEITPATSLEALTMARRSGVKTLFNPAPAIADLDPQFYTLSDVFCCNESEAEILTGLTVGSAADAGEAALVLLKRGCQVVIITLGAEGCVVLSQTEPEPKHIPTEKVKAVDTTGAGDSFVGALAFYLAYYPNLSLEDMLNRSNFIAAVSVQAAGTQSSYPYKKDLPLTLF
Method: Human ribokinase plasmid was purchased from OriGene (NM_022128.1). A FLAG sequence was appended 5′ to the ribokinase sequence and the FLAG-tagged ribokinase was subcloned into the retroviral vector pMSCV-IRES-YFP (pRBKS). 293T cells were transfected with the pRBKS vector and Lipofectamine 2000 (Invitrogen) according to manufacturer's protocol. Cells were lysed in RIPA buffer (1% NP-40, 1% Sodium deoxycholate, 0.3% Sodium dodecyl sulfate, […], 1 mM EDTA, 50 mM Tris-HCl pH 6.8). Protein concentration was determined by the BCA Protein Assay Kit (Pierce), and FLAG-tagged ribokinase was captured from 1 mg of lysate with anti-FLAG M2 Magnetic Beads (Sigma) and eluted with 100 μL of FLAG peptide (Sigma), as per the manufacturer's protocol. Cells not transfected with RBKS were lysed as a control.
1 μL of FLAG-tagged ribokinase or control eluent was added to 50 mM Tris-HCl, pH 7.8, 3 mM ATP, 100 mM KCl, 10 mM MgCl2, 1× protease inhibitor cocktail (Roche), and 1 μCi [^3H]-Ribose (Moravek) or [^18F]-FDA in a 10 μL volume. […] In the case of [^3H]-ribose, the samples were dried, placed into scintillation vials, 3 mL of Bio-Safe NA (RPI Corp) was added to each vial, and the samples were measured on a scintillation counter. In the case of [^18F]-FDA, the samples were placed into scintillation vials and counted on a gamma counter. […]

[4] = tested on: enzymes in the pentose phosphate pathway; experiment: Enzymes that metabolize 2-fluoro-2-deoxyarabinose in vitro (FIG. 6); type: in vitro ADME

| localization of probe to the liver ([1]; 12 week old C57Bl/6 female (wild-type) mice, 1 hour, PET/CT) | phosphorylation by isolated ribokinase [3] | Compound | tissues in which the probe selectively accumulates [1] | tissues in which the probe selectively accumulates ([1]; listed as 18F labelled 2-fluoro-2-deoxyarabinose) | metabolic pathway and metabolite in vivo ([2]; in vivo) | tissues that metabolize the probe ([2]; metabolite studies) | metabolism by enzymes in vitro [4] |
| --- | --- | --- | --- | --- | --- | --- | --- |
| localizing significantly to the liver | phosphorylates | OC[C@H]1O[C@@H](O)C([18F])C1O (some centres unmarked) [[^18F]-FDA, [^18F]-2-fluoro-2-deoxyarabinose] | accumulates in organs with high levels of ribokinase | murine liver, kidney and intestinal tissues | metabolized in vivo by the non-oxidative pentose phosphate pathway to 4-fluoro-4-deoxysedoheptulose-7-phosphate | metabolized by tissues in addition to the liver, including the spleen, muscles, heart, blood, thyroid, and kidneys | enzymes in the pentose phosphate pathway metabolize |
|  | phosphorylates | [^3H]-Ribose [reference compound] |  |  |  |  |  |
